Source: BindingDB's records for doi:10.1021/jm100158v (University of California, 2010)

Assay: Inhibition of Escherichia coli K12 ADCS by spectrophotometry

## Cc1ccc(C(=O)N[C@@H](CCCCNC(=O)c2cccc(OCC(=O)O)c2)C(=O)N[C@@H](Cc2cccc(Cl)c2)C(N)=O)c([N+](=O)[O-])c1O [2-(3-((S)-6-((S)-1-amino-3-(3-chlorophenyl)-1-oxopropan-2-ylamino)-5-(3-hydroxy-4-methyl-2-nitrobenzamido)-6-oxohexylcarbamoyl)phenoxy)acetic acid]
  Ki: 770 µM
